# In patent US11787835B2, “C19 scaffolds and steroids and methods of use and manufacture thereof” (Trustees of Dartmouth College, priority 2018, dated 2023):
# How the values were obtained:
# glioblastoma cell lines = assay: MTT cell viability assay in glioblastoma cell lines; type: cell-based, human
# Description: (§1) To determine the biological effect of Compound 100 and Compound 101, human glioblastoma-derived cell lines U251 and U87 were treated with varying concentrations of Compound 100, Compound 101, temazolomide (TMZ; a standard of care chemotherapeutic agent), or vehicle-toxicity control, dimethylsulfoxide (DMSO) used at final volumes that were identical to those used to attain all concentrations tested of Compound 100 and Compound 101.
# U251 and U87 cells [1] = assay: Annexin V/7-AAD apoptosis FACS analysis; type: cell-based, human; details: 24 hours, Annexin V and 7-AAD, FIG. 3C
# Description: FIG. 3C is a flow cytometric analysis of U251 and U87 co-stained with Annexin V-FITC/7-AAD after treatment with Compound 100, Compound 101, TMZ, and vehicle control DMSO (n=4).
# (§2) In order to elucidate the mechanism of this cell death, glioblastoma cells treated for 24 hours with Compound 100, Compound 101, TMZ, or DMSO control were analyzed for early and late apoptosis markers (Annexin V and 7-Aminoactinomycin D) by FACS analyses. […] Additionally, over a period of five days, morphological changes in U251 and U87 cells treated with Compound 100 and Compound 101 were tracked using the Incucyte live cell imaging system.
# U251 and U87 cells [2] = assay: Growth inhibition and viable cell counts of glioblastoma cell lines; type: cell-based, human; details: for inhibition of glioma cell growth (IC50), fold lower concentration compared to TMZ: after 24 hours, FIG. 3A
# Description: FIG. 3A-3B are line graphs depicting (A) dose dependent growth inhibition of U251 and U87 cells treated with Compound 100, Compound 101, TMZ, and vehicle control DMSO (n=4) and (B) viable cell counts of U251 and U87 cells treated with Compound 100, Compound 101, TMZ, and vehicle control DMSO determined every 24 hours for 96 hours (n=4)
# as §1
# [3] = test system: DU-145 prostate cancer cells (endogenous ERβ); assay: Alkaline phosphatase activity in DU-145 prostate cancer cells; type: cell-based, human; details: DU-145 cells, 24 hours, 5 μM, FIG. 2
# Description: FIG. 2 is a bar graph showing alkaline phosphatase activity in human DU-145 prostate cancer cells (17β-estradiol, Compound 100, and Compound 101 were evaluated at 5 μM).
# The DU-145 prostate cancer cell line only expresses ERβ and can be used as a model to examine the activation of ERβ in the absence of any potential confounding signal driven by ERα. Alkaline phosphatase (ALP) expression is induced in an ER-dependent manner and has been used to characterize the activity of synthetic ER agonists and antagonists.
# In order to examine the ability of Compound 100 and Compound 101 to activate ERβ in the context of a cell line expressing endogenous ERβ, DU-145 cells were treated for 24 hours with either 17β-estradiol, Compound 100, or Compound 101 and ALP activity derived from the cells was examined.
# ERβ = ERβ (Homo sapiens, UniProt Q92731); assay: ERβ agonist assay (functional activity at estrogen receptors); type: cell-based
# ERβ, sequence (Q92731 whole entry, species assumed): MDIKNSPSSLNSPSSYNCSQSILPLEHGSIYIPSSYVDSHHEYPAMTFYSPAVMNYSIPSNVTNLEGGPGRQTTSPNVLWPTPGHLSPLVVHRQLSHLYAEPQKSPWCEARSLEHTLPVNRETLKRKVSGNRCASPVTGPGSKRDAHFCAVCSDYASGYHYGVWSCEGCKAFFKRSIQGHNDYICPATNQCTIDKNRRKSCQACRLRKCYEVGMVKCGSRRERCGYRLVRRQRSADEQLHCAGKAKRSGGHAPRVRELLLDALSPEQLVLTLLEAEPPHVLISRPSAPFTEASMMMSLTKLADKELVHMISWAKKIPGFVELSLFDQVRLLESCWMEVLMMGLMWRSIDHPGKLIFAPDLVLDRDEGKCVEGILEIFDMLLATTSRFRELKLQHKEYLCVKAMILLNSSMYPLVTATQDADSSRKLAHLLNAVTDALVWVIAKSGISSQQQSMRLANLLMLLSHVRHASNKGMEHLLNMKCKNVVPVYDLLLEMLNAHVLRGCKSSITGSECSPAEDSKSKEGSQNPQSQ
# Description: FIG. 1 is a set of line graphs showing the results of ERβ and ERα agonist assays for Compounds 100 and 101.
# Compounds 100 and 101 were evaluated for their functional activity at estrogen receptors (both ERα and ERβ). 17β-estradiol was used as a control, as it is appreciated to be a potent agonist of both ERα and ERβ.
# established tumors = assay: In vivo growth of established tumors; details: initial studies
# From the text: In comparison to 17β-estradiol, Compound 100 and Compound 101 have a unique profile for selective agonism of ERβ (FIG. 1).
# U251 and U87 cells [4] = assay: Incucyte live cell imaging of morphological changes; type: cell-based, human; details: over five days, FIG. 3D
# Description: FIG. 3D depicts phase-contrast images using Incucyte for live cell tracking of U251 and U87 cells in response to treatment with Compound 100, Compound 101, TMZ, and vehicle control DMSO. Live cells were tracked and imaged for 96 hours (data not shown). Scale bar=300 μm. All data in FIG. 3A-3D are representative of four independent experiments and four replicates of each treatment condition were analyzed per experiment.
# as §2
# [5] = test system: primary glioma tumor cells from patients; assay: Growth of primary glioma tumor cells from patients; type: cell-based, human
# From the text: The present disclosure also relates to the use of such compounds as biologically active (e.g., therapeutic) components in, for example, pharmaceutical compositions and/or directly as human and/or animal therapeutics and medicines. In certain embodiments, the compounds are ERβ selective agonists and/or may be used to treat or prevent conditions, disorders, or diseases such as cancer (e.g., breast cancer, prostate cancer, ovarian cancer, acute myeloid leukemia, and glioma, among others) or neurodegeneration. Currently there is no widely applicable cure for primary brain tumors.
Compound,growth of glioblastoma cell lines (MTT) (glioblastoma cell lines),"induction of apoptosis, fold higher than TMZ or DMSO controls (U251 and U87 cells [1])","inhibition of glioma cell growth (IC50), fold lower concentration compared to TMZ (U251 and U87 cells [2])","viability and proliferation of glioblastoma lines (U251 and U87 cells [2]; assessed every 24 hours for 5 days, compared to TMZ or DMSO, FIG. 3B)",induction of ALP activity [3],type of ERβ agonism (ERβ),growth of established tumors in vivo (established tumors),"morphological changes (adherence, cellular integrity) (U251 and U87 cells [4])",growth of primary glioma tumor cells from patients [5]
"C[C@]12CC[C@@]3(C)C(=C1C[C@@H](O)C2)CCc1cc(O)ccc13 [Compound 100, (9S,13R,16S)-9,13-dimethyl-7,9,11,12,13,15,16,17-octahydro-6H-cyclopenta[α]phenanthrene-3,16-diol]",significantly reduced the growth of glioblastoma cell lines in a dose-dependent manner,7 fold,50 fold,reduced viability and the resulting proliferation of glioblastoma lines in a dose dependent manner,effective at inducing ALP to levels comparable to 17β-estradiol,full agonist,reduces the growth of established tumors,Increased loss of adherence and cellular integrity,inhibit growth
"C[C@@]12CC[C@]3(C)C(=C1C[C@H](O)C2)CCc1cc(O)ccc13 [Compound 101, (9R,13S,16R)-9,13-dimethyl-7,9,11,12,13,15,16,17-octahydro-6H-cyclopenta[a]phenanthrene-3,16-diol]",,7 fold,50 fold,,,,,,
"C[C@]12CC[C@@H]3c4ccc(O)cc4CC[C@H]3[C@@H]1CC[C@@H]2O [17β-estradiol, reference compound]",,,,,effective in inducing ALP activity,,,,
